From article PMC7127694 (Bioorganic & Medicinal Chemistry, 2009)
pEC50: −log10 of the molar value. Where two headings read alike, the source gives them in different places.

Columns and labels:
[1] = test system: BVDV; conditions: read-out: EC50 (anti-BVDV); cited from earlier work
[2] = Cytotoxicity on host cells, mean over the host cell lines; conditions: human, bovine, hamster, monkey
[3] = test system: HSV-1 (Herpes Simplex virus, Type-1); type: cell-based
[4] = test system: RSV; conditions: read-out: EC50 (anti-RSV), cited from earlier work

For “3-[(dipropylaminoethyl)thio]-5H-1,2,4-triazino[5,6-b]indole [VP32947]”, the pEC50 [1] is listed as 7.40 to 7.52.
With `CN(C)CCCN(/N=N/c1cc(F)ccc1F)c1ccccc1` [Compound 29, 1-[1-(2,5-Difluorophenyl)-3-phenyltriazen-3-yl]-N,N-dimethyl-3-propanamine] the CC50 [2] was 17500 nM.
For `CN(C)CCCNc1ccc(/N=N/c2cccc([N+](=O)[O-])c2)cc1.Cl` [Compound 2, N,N-Dimethyl-N′-[4-(3-nitrophenylazo)phenyl]propane-1,3-diamine], the “S. I. (selectivity index), HSV-1” value [3] was 4.2.
In the case of `O=c1n(Cc2nc3ccccc3n2CCCCO)c2cnccc2n1C1CC1` [BMS-433771], the pEC50 ([4]; fusion inhibitor) is given as 7.68.
For `O=C(Nc1ccccc1F)N[C@H]1N=C(c2ccccc2)c2ccccc2NC1=O` [RSV-604], the pEC50 ([4]; S-enantiomer) is listed as 6.05.
Molecule `Fc1ccc(/N=N/c2ccc(NC[C@@H]3CCCN4CCCC[C@H]34)c3c2CCCC3)c(F)c1` [Compound 12] has a CC50 [2] of 21500 nM.
In the case of `Brc1ccc(Cn2ccc3nc(-c4ccccc4)nc-3c2)cc1` [BPIP, 5-[4-bromobenzyl]-2-phenyl-5H-imidazo[4,5-c]pyridine], the pEC50 [1] is listed as 7.40 to 7.52.
